“Also recorded” adds a separate entry of the source. Read-outs that look alike come from different tables or passages of the source. Marks after values point to notes of the source that are not given here.
What was measured:
cardiac surgery patients = details: cited from earlier work; for Result: hemodynamic effects, amrinone vs milrinone: n 44, elective cardiac surgery, bolus amrinone 0.75 mg/kg or milrinone 25 μg/kg
[1] = system: rings of porcine pulmonary artery with endothelium; test: vascular reactivity studies in organ chambers after cardiopulmonary bypass; assay type: in vivo, Landrace swine; details: for KCL: amplitude of the contraction to KCl (60 mmol/L) / Dose PE: concentration of PE used to obtain 50% of contraction to KCl: mean +/- SEM
Experimental: After 60 minutes of reperfusion, swine were sacrificed and pulmonary arteries harvested. After contraction to phenylephrine, pulmonary arteries endothelium-dependent relaxations to bradykinin (Gq coupled) and acetylcholine (Gi coupled) were studied in standard organ chamber experiments.
Less than 10 minutes after “en bloc” excision, the heart was removed and the primary pulmonary artery was dissected. Branches of second degree pulmonary arteries were isolated and dissected free of connective and adventitial tissue and divided into rings (4 mm wide; 16 rings per animal). All rings were placed in organ chambers (Emka technologies Inc, Paris, France) filled with 20 mL modified Krebs-bicarbonate solution continuously heated at 37° C. and oxygenated with a carbogen mixture (95% O2 and 5% CO2). The rings were suspended between 2 metal stirrups with the upper 1 connected to an isometric force transducer connected to a signal amplifier and then allowed to stabilize for 30 minutes. Data were collected with a biological signal data acquisition software (IOX 1.700; Emka technologies Inc, Paris, France). Each arterial ring was stretched to the optimal point of its active length-tension curve (3.5 g) as determined by measuring the contraction to potassium chloride (KCl) 60 mmol/L at different levels of stretch (data not shown). The maximal contraction of rings was then obtained with addition of potassium chloride (KCl 60 mmol/L). After obtention of a plateau, all baths were washed twice with modified Krebs bicarbonate solution and indomethacin ([…]; to exclude production of endogenous prostanoids) was added in each bath. After 45 minutes of stabilisation, phenylephrine (range 2 {acute over} 10-7 mol/L to 3 {acute over} 10-6 mol/L) was added to obtain a contraction averaging 50% of the maximal contraction to KCl.
The NO-mediated relaxation pathway was studied by constructing concentration-response curves to acetylcholine (ACh, 10-9 to 10-5 mol/L; an agonist of M2 receptors coupled to Gi-proteins) and to bradykinin (BK, 10-12 to 10—6 mol/L; an agonist of B2 receptors coupled to Gq-proteins).
At the end of the experiment, endothelium-independent relaxations were studied with the use of 10-5 mol/L sodium nitroprusside (SNP), a nitric oxide donor
All values are expressed as the mean±standard error of the mean (SEM). Contractions to phenylephrine are expressed as a percentage of the maximal contraction to KCl (60 mmol/L). Relaxations are expressed as the percentage of the maximal contraction to phenylephrine for each ring. Two-way repeated analysis of variance (ANOVA) were performed to compare each point of the concentration-response curves between control rings and CPB rings. Student's t test for paired/unpaired observations was used for the comparison of the pulmonary artery pressures and the intravascular cAMP content. Statistical analysis was performed with the computer software S.A.S (Instr Inc. Cary, N.C., USA). A P-value less than 0.05 was considered statistically significant.

[2] = system: person in cardiogenic shock; test: inhaled milrinone in a person in cardiogenic shock (echocardiographic and hemodynamic monitoring); assay type: in vivo, human; details: 5 mg milrinone through inhalation
Description: Finally, the cardiac index increased from 1.8 to 2.8 L.min/m^2.

[3] = system: porcine subjects undergoing cardiopulmonary bypass
[4] = system: patients with pulmonary hypertension; details: inhaled milrinone; cited from earlier work
[5] = system: coronary care unit patients hospitalized for an exacerbation of chronic heart failure; details: cited from earlier work
[6] = system: person operated under cardiopulmonary bypass; test: inhaled prostacyclin at weaning from bypass in a person; assay type: in vivo, human; details: weaned with inhaled prostacyclin (75 μg)
Experimental: In another case, a person was operated for a third time under cardiopulmonary bypass. […] Pre-operatively, they had abnormal right ventricular diastolic function with a lower systolic or S wave on the hepatic venous Doppler signal. After bypass (duration 157 min), they were weaned with inhaled prostacyclin (75 μg) and they left the operating room with noradrenaline at 2.5 μg/min and nitroglycerine at 0.4 μg/kg/min.

[7] = system: patient, mitral valve and tricuspid valve repair; test: inhaled prostacyclin prior to extra-corporal circulation in a patient; assay type: in vivo, human
Description: This is to be contrasted with changes observed in Doppler hepatic venous flow after inhaled prostacyclin in a patient scheduled to undergo mitral valve and tricuspid valve repair. […] This was associated with a reduction in mean pulmonary artery pressure from 36 to 29 mmHg, pulmonary vascular resistance index from 589 to 267 dynes.s/cm^5/m^2 and an increase in cardiac index from 1.9 to 2.4 L/min/m^2. Heart rate and mean arterial pressure decreased respectively from 63 to 52 beats/min and from 76 to 64 mmHg.

[8] = intravenous; animal studies; cited from earlier work
[9] = system: heart transplant candidate; details: inhaled prostacyclin group; cited from earlier work
[10] = n 120, low CO after cardiac surgery

[N]=O [NO, nitric oxide]
Result: right ventricular ejection fraction (cardiac surgery patients; n 45, pulmonary hypertension, Group 3 40 ppm NO compared to group 1 (milrinone) and 2 (20 ppm NO)): Group 3 (40 ppm)higher right

Nc1cc(-c2ccncc2)c[nH]c1=O [amrinone]
Result: hemodynamic effects, amrinone vs milrinone (cardiac surgery patients): produced similar

CC(CCc1ccc(O)cc1)NCCc1ccc(O)c(O)c1 (stereo not drawn) [dobutamine]
Result: overall comparison milrinone and dobutamine (cardiac surgery patients; [10]): comparable
Result: increases in cardiac index (cardiac surgery patients; n 120, low CO after cardiac surgery, dobutamine 10 to 20 μg/kg/min vs milrinone): group D had greater

Cc1[nH]c(=O)c(C#N)cc1-c1ccncc1 [milrinone]
KCL: amplitude of the contraction to KCl (60 mmol/L) ([1]; Mil INH group): 4.8 +/− 0.28
Dose PE: concentration of PE used to obtain 50% of contraction to KCl ([1]; Mil INH group, p<0.01 vs intravenous milrinone, p<0.05 vs control): greater
Dose PE: concentration of PE used to obtain 50% of contraction to KCl ([1]; Mil INH group, p<0.01 vs intravenous milrinone, p<0.05 vs control, listed as Mil INH): 8.3 +/− 0.93*,**
Dose PE: concentration of PE used to obtain 50% of contraction to KCl ([1]; Mil IV group): 4.1 +/− 0.3
KCL: amplitude of the contraction to KCl (60 mmol/L) ([1]; Mil IV group): 4.0 +/− 0.3
endothelium-dependent relaxation to BK ([1]; inhaled milrinone compared to all other groups, P<0.05, FIG. 10): increased relaxation; also recorded: preventive effect
CPB-induced decrease of endothelium-dependent relaxation to ACh ([1]; inhaled milrinone prior to CPB, FIG. 9): completely reversed; also recorded: preventive effect
endothelium-dependent relaxation to BK: preventive effect on endothelial function ([1]; intravenous milrinone, FIG. 10): not seen
right atrial pressure (RAP) after administration ([2]; decrease from 17): 7 mm Hg
mean pulmonary arterial pressure after administration ([2]; decrease from 33): 24 mm Hg
mean arterial pressure after administration ([2]; decrease from 92): 77 mm Hg
heart rate after administration ([2]; increase from 72): 84 beats/minutes
systemic vascular resistance after bolus ([3]; in vivo): did not fall
heart rate ([3]; in vivo, iv): increased
systemic vascular resistance after bolus ([3]; in vivo, iv): important decrease
heart rate ([3]; inhaled milrinone vs CPB, at 15, 45 and 75 minutes per CPB and 30 and 60 minutes post CPB, p<0.05, FIG. 6): significantly lower
mean arterial pressure following administration of the bolus ([3]; inhaled milrinone, bolus of 60-90 mg/kg via nebulizer during 15 minutes preceding CPB, p<0.05, FIG. 2): significant decrease
pulmonary vascular resistance [4]: reduce pulmonary vascular resistance; also recorded: lowered pulmonary vascular resistances
Result: wean from bypass (cardiac surgery patients; n 32, LVEF ≦ 35%, PCWP ≧ 20 mmHg pre-bypass, bolus 50 ug/kg, perfusion 0.5 ug/kg/min, vs 5/15 placebo): All patients with milrinone
Result: hemodynamic effects, amrinone vs milrinone (cardiac surgery patients): produced similar
Result: overall comparison milrinone and dobutamine (cardiac surgery patients; [10]): comparable
Result: decreases in mean pulmonary capillary wedge pressure (cardiac surgery patients; n 120, low CO after cardiac surgery, milrinone 50 μg/kg and perfusion 0.5 μg/kg/min vs dobutamine): Group M had greater
median number of days hospitalized for cardiovascular causes within 60 days ([5]; intravenous milrinone vs placebo): no difference
in-hospital mortality ([5]; intravenous milrinone, vs 2.3% placebo, P=0.19): 3.8%
60-day mortality ([5]; intravenous milrinone, vs 8.9% placebo, P=0.41): 10.3%

CCCCC[C@H](O)/C=C/[C@@H]1[C@H]2C/C(=C/CCCC(=O)O)O[C@H]2C[C@H]1O [prostacyclin]
vasoactive drugs in the post-operative period [6]: No vasoactive drugs were required
mean arterial pressure after bypass ([6]; decreased from 78): 67 mmHg
cardiac index after bypass ([6]; increase from 2.3): 3.3 L/min/m^2
heart rate after bypass ([6]; increased from 66): 85 beats/min
pulmonary vascular resistance indexed after bypass ([6]; reduction from 242): 121 dynes.s/cm^5/m^2
hepatic venous flow signal ([6]; right ventricular diastolic waveform still abnormal): did not change significantly
vasoactive drugs used post-operatively [7]: no vasoactive drugs used
difficult separation from bypass ([7]; cardiopulmonary bypass time of 138 min): no difficult separation from bypass
heart rate ([7]; decreased from 63): 52 beats/min
mean arterial pressure ([7]; decreased from 76): 64 mmHg
cardiac index ([7]; increase from 1.9): 2.4 L/min/m^2
Doppler hepatic venous flow systolic or S wave ([7]; negative value before, within 18 minutes): became positive and less pronounced
mean pulmonary artery pressure ([7]; reduction from 36): 29 mmHg
pulmonary vascular resistance index ([7]; reduction from 589): 267 dynes.s/cm^5/m^2
half-life [8]: 2 to 3 min
cardiac output increased by [9]: 11%
